# Key:
# [1] = test system: kindled epilepsy; settings: animal model of kindled epilepsy; cited from earlier work
# [2] = test system: seizures; settings: several rodent models of epilepsy; cited from earlier work
# [3] = test system: partial onset seizures; assay: placebo controlled, add on trials in partial onset seizures; type: in vivo; settings: adults and children with partial onset seizures
# Description: There is also known enhancement of GABA activity in the brain along with reduced glutamate receptor activity. Accordingly, compounds of formula I are useful in the treatment of autism.
# [4] = test system: simple and complex partial seizures and secondarily generalized seizures; settings: clinical trials of human epilepsy; adjunctive therapy or monotherapy; cited from earlier work
smiles,measurement,setting,value
"CC1(C)O[C@@H]2[C@@H](CO[C@@]3(COS(N)(=O)=O)OC(C)(C)O[C@@H]23)O1 [topiramate, 2,3:4,5-bis-O-(1-methylethylidene)-β-D-fructopyranose sulfamate]",block of seizures,[1],effectively block seizures
same,block of seizures,[2],effectively block seizures
same,reduction of seizure rate versus placebo,[3],statistically significant reduction of seizure rate
same,efficacy in treating simple and complex partial seizures and secondarily generalized seizures,[4],effective

# Reference: patent publication US6552000B2, “Anticonvulsant derivatives useful in treating autism” (Ortho-McNeil Pharmaceutical, Inc., priority 1999, dated 2003)
